Results as given in patent US9605002B2, “5,5-heteroaromatic anti-infective compounds” (priority 2012, dated 2017).
Values joined by “and” are separate entries in the source; they are usually repeats but may differ in a detail not shown here. Equal entries are not always repeated.

Experiments:
Test in all cases: MIC against clinical Mtb strains
Format in all cases: cell-based
Details in all cases: Mycobacterium tuberculosis
[1] = tested on: MDR-TB resistant to HREZSKP
[2] = tested on: MDR-TB resistant to HREKP
[3] = tested on: MDR-TB resistant to HRERb
[4] = tested on: XDR-TB resistant to HRESKO
[5] = tested on: XDR-TB resistant to HREKO

SMILES	MIC90 [1]	MIC90 [2]	MIC90 [3]	MIC90 [4]	MIC90 [5]
Cc1cn2c(C(=O)NCc3ccc(Oc4ccc(F)cc4)cc3)c(C)nc2s1 [ND-010081]	0.02 µM to 10 µM and 0.05 µg/mL to 25 µg/mL	< 0.01 µM and < 0.025 µg/mL	0.63 µM and 1.6 µg/mL	< 0.01 µM and < 0.025 µg/mL	< 0.01 µM and < 0.025 µg/mL
O=[N+]([O-])c1cn2c(n1)OC[C@@H](OCc1ccc(OC(F)(F)F)cc1)C2 [PA-824, reference compound]	0.45 µM to 0.86 µM and 0.16 µg/mL to 0.31 µg/mL	0.45 µM to 0.86 µM and 0.16 µg/mL to 0.31 µg/mL	0.45 µM to 0.86 µM and 0.16 µg/mL to 0.31 µg/mL	0.86 µM and 0.31 µg/mL	0.22 µM and 0.08 µg/mL
